Among the data in patent publication US9681664B2, “Macrocyclic picolinamides as fungicides” (Dow Agrosciences LLC, priority 2012, dated 2017) are melting point and pest or weed control values, retold here.

In data set [1] the test system is Blumeria graminis f. sp. tritici; Synonym: Erysiphe graminis f. sp. tritici. Nature of the data set: Wheat powdery mildew (ERYSGT) disease control. It is filed as in vivo. The note with it: 24 h, 1 Day Protectant, high volume, read-out: Disease Control ERYSGT 1 DP. How it is done: Technical grades of materials were dissolved in acetone, which were then mixed with nine volumes of water containing 110 ppm Triton X-100. The fungicide solutions were applied onto wheat seedlings using an automated booth sprayer to run-off. All sprayed plants were allowed to air dry prior to further handling. All fungicides were evaluated using the aforementioned method for their activity vs. all target diseases. Wheat leaf blotch and brown rust activity were also evaluated using track spray applications, in which case the fungicides were formulated as EC formulations, containing 0.1% Trycol 5941 in the spray solutions. Wheat plants (variety Yuma) were grown from seed in a greenhouse in 50% mineral soil/50% soil-less Metro mix until the first leaf was fully emerged, with 7-10 seedlings per pot. These plants were inoculated by dusting with infected stock plants 24 hr after fungicide treatments. After inoculation the plants were kept in a greenhouse set at 20° C. for disease to develop. Fungicide formulation, application and disease assessment on the sprayed leaves followed the procedures as described in the Example A.

As usually defined, the melting point is the temperature of the solid-liquid transition. The molecule `COc1ccnc(C(=O)N[C@H]2CCC[C@H](OCc3ccccc3)[C@@H](OCc3ccccc3)[C@H](C)OC2=O)c1OCOC(C)=O` [F30] gave a melting point of 42 to 52 °C. Besides, in data set [1], the pest or weed control at 100 ppm is below 0%.

In the case of `COc1ccnc(C(=O)N[C@H]2CCC[C@H](Oc3ccccc3)[C@@H](OCC(C)C)[C@H](C)OC2=O)c1OCOC(C)=O` [F28], the melting point fell in the range of 135 to 137 °C. Also, the pest or weed control at 100 ppm in data set [1] was 0 to 80%.

On to `COc1ccnc(C(=O)N[C@H]2CCC[C@H](Oc3ccccc3)[C@@H](Oc3ccccc3)[C@H](C)OC2=O)c1OCOC(C)=O` [F20], for which, in data set [1], the pest or weed control at 100 ppm was in the range of 0 to 80%.

Regarding `COc1ccnc(C(=O)N[C@H]2CCC[C@H](OCC(C)C)[C@@H](OC3CCCC3)[C@H](C)OC2=O)c1OCOC(=O)C(C)C` [F38], the pest or weed control at 100 ppm in data set [1] is 0 to 80%.

As for `COc1ccnc(C(=O)N[C@H]2CCC[C@H](OCC(C)C)[C@@H](Oc3ccccc3)[C@H](C)OC2=O)c1OCOC(=O)C(C)C` [F34], the pest or weed control at 100 ppm in data set [1] lay in the range of 0 to 80%.

Consider `COc1ccnc(C(=O)N[C@H]2CCC[C@H](OCC(C)C)[C@@H](OC3CCCC3)[C@H](C)OC2=O)c1OCOC(C)=O` [F39], for which the pest or weed control at 100 ppm in data set [1] was 80 to 100%.

`COc1ccnc(C(=O)N[C@H]2CCC[C@H](OCC(C)C)[C@@H](OCC(C)C)[C@H](C)OC2=O)c1OCOC(=O)C(C)C` [F37]: in data set [1], the pest or weed control at 100 ppm fell in the range of 0 to 80%.

In the case of `COc1ccnc(C(=O)N[C@H]2CCC[C@H](Oc3ccccc3)[C@@H](OCC(C)C)[C@H](C)OC2=O)c1OCOC(=O)C(C)C` [F35], the pest or weed control at 100 ppm in data set [1] is 0 to 80%.

Consider `COc1ccnc(C(=O)N[C@H]2CCC[C@H](OCC(C)C)[C@@H](Oc3ccccc3)[C@H](C)OC2=O)c1OCOC(C)=O` [F26], for which the pest or weed control at 100 ppm in data set [1] lay in the range of 0 to 80%.

Regarding `COc1ccnc(C(=O)N[C@H]2CCC[C@H](OCC(C)C)[C@@H](OCC(C)C)[C@H](C)OC2=O)c1OCOC(C)=O` [F29], the pest or weed control at 100 ppm in data set [1] was 80 to 100%.

`COc1ccnc(C(=O)N[C@H]2CCC[C@H](OCc3ccccc3)[C@@H](Oc3ccccc3)[C@H](C)OC2=O)c1OCOC(C)=O` [F31] gave a melting point of 49 to 55 °C. Further, the pest or weed control at 100 ppm in data set [1] fell in the range of 0 to 80%.

Take `COc1ccnc(C(=O)N[C@H]2CCC[C@H](Oc3ccccc3)[C@@H](Oc3ccccc3)[C@H](C)OC2=O)c1OCOC(=O)C(C)C` [F36]: the pest or weed control at 100 ppm in data set [1] is below 0%.
